# Where two headings read alike, the source gives them in different places.
# Test system: Saccharomyces cerevisiae (Ethanol Red)
# Conditions: yeast 2.4 g/L, glucose concentration at 10%
# Protocol: Various concentrations of yeast were added to glucose based liquid media with and without NaHCO3 and the fermentation process monitored for glucose consumption and ethanol production.
# The fermentation media consisted of 25 gm of glucose and 1 ml of urea (45%) in 250 ml of water. The pH of the system was adjusted to 4.5 with 1 M H2SO4. The temperature of incubation was about 32° C., and the tests were conducted for 72 hours. The tests compared fermentation systems with and without sodium bicarbonate (NaHCO3). NaHCO3 was added to final concentrations of 200 ppm or 500 ppm in the test vessels. […] In some vessels the pH was readjusted to 4.5. Yeasts (Saccharomyces cerevisiae (Ethanol Red) diluted 1 to 5 in water, were added to the various test vessels at 0.5, 2, 3, 4 and 5 ml. Yeasts at 3 ml in the vessel corresponds to 2.4 g/L. The fermentation media vessels were monitored for glucose utilization and ethanol production via HPLC measurement at 2, 4, 6, 24, 48 and 72 hours.
structure (smiles),measurement,setting,value
"O=C([O-])O.[Na+] [SBC, sodium bicarbonate]",Ethanol (% after 48 hours),SBC 200 ppm,4.8%
same,Ethanol (% after 48 hours),SBC 500 ppm,4.8%

# — patent US8679803B2, “Glucose conversion to ethanol via yeast cultures and bicarbonate ions” (Church & Dwight Co., Inc., priority 2007, dated 2014)
